In assay [1] the target is KOR (Homo sapiens, UniProt P41145). The assay can be described thus: agonist-stimulated [35S]GTPγS binding, KOR. The settings on record: for EC50 (nM) KOR: [35S]GTPγS binding, CHO-KOR membranes, mean ± SEM; for EC50 (nM) KOR / % stimulation KOR: dns: does not stimulate; for % stimulation KOR: percent maximal stimulation relative to standard agonist U69,593 at 10 µM.
In assay [2] the target is MOR (Rattus norvegicus, UniProt P33535). The assay can be described thus: agonist-stimulated [35S]GTPγS binding, MOR. The settings on record: for efficacy at MOR (in words): [35S]GTPγS assay; for EC50 (nM) MOR: [35S]GTPγS binding, C6-MOR membranes, mean ± SEM, dns: does not stimulate.
Chain of MOR (P33535 whole entry): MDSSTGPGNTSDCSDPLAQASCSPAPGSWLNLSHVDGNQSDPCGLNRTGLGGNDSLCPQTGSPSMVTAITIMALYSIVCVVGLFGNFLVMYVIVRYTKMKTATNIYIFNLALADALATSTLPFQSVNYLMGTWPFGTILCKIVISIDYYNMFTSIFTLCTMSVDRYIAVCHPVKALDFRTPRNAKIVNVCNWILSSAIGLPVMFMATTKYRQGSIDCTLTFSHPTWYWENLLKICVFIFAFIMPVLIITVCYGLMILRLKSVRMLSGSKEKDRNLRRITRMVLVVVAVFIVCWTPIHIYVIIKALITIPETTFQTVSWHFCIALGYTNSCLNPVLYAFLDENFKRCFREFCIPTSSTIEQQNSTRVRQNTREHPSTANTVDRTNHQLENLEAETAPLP
Assay [3] addresses DOR (Rattus norvegicus, UniProt P33533). The assay can be described thus: agonist-stimulated [35S]GTPγS binding, DOR. The settings on record: for EC50 (nM) DOR: [35S]GTPγS binding, C6-DOR membranes, dns: does not stimulate.

Chain of DOR (P33533 whole entry): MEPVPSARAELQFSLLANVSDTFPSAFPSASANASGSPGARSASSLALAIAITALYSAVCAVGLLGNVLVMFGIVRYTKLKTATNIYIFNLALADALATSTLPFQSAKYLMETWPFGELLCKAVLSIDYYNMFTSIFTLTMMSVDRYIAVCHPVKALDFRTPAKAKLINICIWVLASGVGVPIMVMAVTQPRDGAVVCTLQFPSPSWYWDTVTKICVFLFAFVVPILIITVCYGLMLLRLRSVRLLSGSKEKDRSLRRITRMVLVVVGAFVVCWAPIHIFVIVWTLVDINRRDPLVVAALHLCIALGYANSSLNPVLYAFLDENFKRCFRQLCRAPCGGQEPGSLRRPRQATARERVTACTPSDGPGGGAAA
Chain of KOR (P41145 whole entry): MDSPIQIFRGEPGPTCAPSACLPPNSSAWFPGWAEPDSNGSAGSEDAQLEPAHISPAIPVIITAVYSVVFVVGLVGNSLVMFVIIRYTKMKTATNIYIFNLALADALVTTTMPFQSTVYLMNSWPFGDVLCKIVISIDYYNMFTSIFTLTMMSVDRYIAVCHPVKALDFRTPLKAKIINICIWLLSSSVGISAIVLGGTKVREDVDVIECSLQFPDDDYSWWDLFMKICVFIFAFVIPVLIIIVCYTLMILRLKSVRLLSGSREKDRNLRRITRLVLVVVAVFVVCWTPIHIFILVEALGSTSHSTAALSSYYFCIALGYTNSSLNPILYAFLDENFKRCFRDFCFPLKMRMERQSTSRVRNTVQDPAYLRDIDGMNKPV

With `Cc1cc(O)cc(C)c1C[C@H](N)C(=O)N1CCC(Cc2ccccc2)c2ccccc21` (some centres unmarked) [Compound 2], in assay [1], the “EC50 (nM) KOR” value is given as “dns” and the “% stimulation KOR” value was “dns”. In assay [2], the “efficacy at MOR (in words)” value is “no notable efficacy” and the “EC50 (nM) MOR” value is reported as “dns”. Also, the “EC50 (nM) DOR” value in assay [3] is listed as “dns”.

As to `Cc1cc(O)cc(C)c1C[C@H](N)C(=O)N1CCC(Cc2ccccc2)CC1` [Compound 3], in assay [1], the “EC50 (nM) KOR” value was “dns” and the “% stimulation KOR” value was “dns”. Also, in assay [2], the “efficacy at MOR (in words)” value was “lacked any efficacy” and the “EC50 (nM) MOR” value is listed as “dns”. Besides, the “EC50 (nM) DOR” value in assay [3] was “dns”.

Regarding `Cc1cc(O)cc(C)c1C[C@H](N)C(=O)N1CCC(CCCc2ccccc2)CC1` [Compound 4], in assay [1], the “EC50 (nM) KOR” value is reported as “dns” and the “% stimulation KOR” value is “dns”. Also, the “efficacy at MOR (in words)” value in assay [2] is reported as “weak partial agonist”. For the same compound, the “EC50 (nM) DOR” value in assay [3] is recorded as “dns”.

As to `Cc1cc(O)cc(C)c1C[C@H](N)C(=O)N1CCN(CCCc2ccccc2)CC1` [Compound 5], in assay [1], the “EC50 (nM) KOR” value was “dns” and the “% stimulation KOR” value was “dns”. The “EC50 (nM) DOR” value in assay [3] is reported as “dns”.

For the compound `Cc1cc(O)cc(C)c1C[C@H](N)C(=O)N1CCN(CCCc2cccc3ccccc23)CC1` [Compound 6], the “% stimulation KOR” value in assay [1] was “dns”. Moreover, in assay [2], the “efficacy at MOR (in words)” value is “partial agonist profile”.

With `Cc1cc(O)cc(C)c1C[C@H](N)C(=O)N1CCN(C/C=C/c2cccc3ccccc23)CC1` [Compound 7], in assay [1] ([35S]GTPγS assay), the “efficacy at KOR (in words)” value is on record as “no efficacy”. For the same compound, the “% stimulation KOR” value in assay [1] was “dns”. In addition, the “efficacy at MOR (in words)” value in assay [2] was “no efficacy”. In addition, the “efficacy at DOR (in words)” value in assay [3] ([35S]GTPγS assay) is “no efficacy”.

Turning to `Cc1cc(O)cc(C)c1C[C@H](N)C(=O)N1CCN(CCC(c2ccccc2)c2ccccc2)CC1` [Compound 8], in assay [1], the “EC50 (nM) KOR” value is reported as “dns” and the “% stimulation KOR” value is reported as “dns”. Besides, the “EC50 (nM) MOR” value in assay [2] is recorded as “dns”. In assay [3], the “EC50 (nM) DOR” value is “dns”.

Regarding `Cc1cc(O)cc(C)c1C[C@H](N)C(=O)N1CCN(CCCCc2ccccc2)CC1` [Compound 9], the “EC50 (nM) KOR” value in assay [1] is recorded as “dns”. The “EC50 (nM) DOR” value in assay [3] is recorded as “dns”.

For `Cc1cc(O)cc(C)c1C[C@H](N)C(=O)N1CCN(C/C=C/Cc2ccccc2)CC1` [Compound 10], the “EC50 (nM) DOR” value in assay [3] was “dns”.

As for `Cc1cc(O)cc(C)c1C[C@H](N)C(=O)N1CCN(C/C=C\Cc2ccccc2)CC1` [Compound 11], the “EC50 (nM) DOR” value in assay [3] is reported as “dns”.

Consider `Cc1cc(O)cc(C)c1C[C@H](N)C(=O)N1CCN(CCCCCc2ccccc2)CC1` [Compound 12], for which, in assay [3], the “EC50 (nM) DOR” value is listed as “dns”.

The values are drawn from publication PMC3919453 (Bioorganic & medicinal chemistry letters, 2013).
